Measured values reported in publication PMC6222425, “Novel 5′-Norcarbocyclic Derivatives of Bicyclic Pyrrolo- and Furano[2,3-d]Pyrimidine Nucleosides” (Molecules : A Journal of Synthetic Chemistry and Natural …, 2018).
Like-named read-outs stand apart in the source and are kept apart here.

Columns and labels:
[1] = test system: HuTu-80 (human duodenal cancer) cells; experiment: Cell viability analysis by MTT assay, HuTu-80; assay type: cell-based; conditions: for IC50: Homo sapiens, HuTu80, MTT, 48 h incubation, read-out: Antiproliferative activity, IC50, HuTu80; for Selectivity index, HuTu80: ratio of IC50 on normal hFF3 cells to IC50 of HuTu80
Description: (§1) The target compounds were tested on different lines of tumor cells, HuTu-80 (human duodenal cancer), B16 (mouse melanoma), A549 (human lung adenocarcinoma), KB-3-1 (human squamous cell carcinoma), HeLa (human squamous cell carcinoma of the cervix), as well as on human noncancer cells hFF3.
(§2) Human KB-3-1 epidermoid carcinoma cell line, human HeLa cervical epithelioid carcinoma cell line, human HuTu-80 duodenal cancer cells, human A549 lung carcinoma epithelial cells, mouse B16 melanoma cell line and human hFF3 fibroblast cells were obtained from the Russian Cell Culture Collection (St. Petersburg, Russia) and were cultured in DMEM (hFF3 cells in IMDM) supplemented with 10% (v/v) heat-inactivated fetal bovine serum, penicillin (100 U mL^−1), streptomycin (100 µg mL^−1) and amphotericin ([…]). Cells were maintained in a humidified atmosphere of 5% CO2 at 37 °C.
(§3) All compounds were dissolved in dimethylsulfoxide (DMSO) and stock solutions (10 mmol L^−1) were stored at −20 °C.
(§4) Cells growing in the logarithmic phase were seeded in triplicate in 96-well plates at a density of 5 × 10^3 cells per well for HeLa and HuTu-80 cells, 7 × 10^3 cells per well for KB-3-1 and hFF3, 10 × 10^3 for A549 and 20 × 10^3 for B16. The plates were incubated at 37 °C in a humidified 5% CO2 atmosphere. Cells were allowed to adhere to the surface for 24 h and then tested compounds were added at different concentrations and incubation was continued for 48 h. Then [3-(4,5-dimethylthiazol-2-yl)-2,5-diphenyltetrazolium bromide] (MTT) solution (10 µL, 5 mg mL^−1) was added to each well and the incubation was continued for an additional 3 h. The dark blue formazan crystals formed within the healthy cells were solubilized with DMSO and the absorbance was measured using a Multiscan RC plate reader at 570 nm. The IC50 was determined as the compound concentration required to decrease the A570 to 50% compared to the control (no tested compounds, DMSO) and was determined by interpolation from dose-response curves.

[2] = test system: B16 (mouse melanoma) cells; experiment: Cell viability analysis by MTT assay, B16; assay type: cell-based; conditions: for IC50: MTT, 48 h incubation, read-out: Antiproliferative activity, IC50, B16; for Selectivity index, B16: ratio of IC50 on normal hFF3 cells to IC50 of B16
Description: as §1, §2, §3, §4

[3] = test system: A549 (human lung adenocarcinoma) cells; experiment: Cell viability analysis by MTT assay, A549; assay type: cell-based; conditions: for IC50: Homo sapiens, A549, MTT, 48 h incubation, read-out: Antiproliferative activity, IC50, A549; for Selectivity index, A549: ratio of IC50 on normal hFF3 cells to IC50 of A549
Description: as §1, §2, §3, §4

[4] = test system: KB-3-1 (human epidermoid carcinoma) cells; experiment: Cell viability analysis by MTT assay, KB-3-1; assay type: cell-based; conditions: for IC50: Homo sapiens, KB 3-1, 48 h, MTT, 48 h incubation, read-out: Antiproliferative activity, IC50, KB-3-1; for Selectivity index, KB-3-1: ratio of IC50 on normal hFF3 cells to IC50 of KB-3-1
Description: as §1, §2, §3, §4

[5] = test system: HeLa (human cervical epithelioid carcinoma) cells; experiment: Cell viability analysis by MTT assay, HeLa; assay type: cell-based; conditions: for IC50: Homo sapiens, HeLa, MTT, 48 h incubation, read-out: Antiproliferative activity, IC50, HeLa; for Selectivity index, HeLa: ratio of IC50 on normal hFF3 cells to IC50 of HeLa
Description: as §1, §2, §3, §4

[6] = test system: human noncancer cells hFF3 (fibroblasts); experiment: Cell viability analysis by MTT assay, normal hFF3 cells; assay type: cell-based; conditions: for IC50: Homo sapiens, HFF-3, 48 h, normal cells, MTT, 48 h incubation, read-out: Antiproliferative activity, IC50, hHFF3; for Toxic effect on normal hFF3 cells: concentrations up to 100 μM
Description: as §1, §2, §3, §4

[7] = test system: tumor cells; experiment: Cell viability MTT assay, statements on the tumor cell panel as a whole; assay type: cell-based; conditions: for Toxic effect on tumor cells: concentrations up to 100 μM
Description: as §1, §2, §4

[8] = test system: KB-3-1 cells; experiment: Apoptosis detection by Annexin V/PI staining, flow cytometry; assay type: cell-based, human; conditions: 48 h
Description: To examine whether the tested 5′-norcarbocyclic derivatives induce cell death via apoptosis Annexin V and propidium iodide analysis were used (Figure 1). […] Annexin V binds phosphatidylserine residues, which are asymmetrically distributed toward the inner plasma membrane, and migrate to the outer plasma membrane during apoptosis.
Exponentially growing KB-3-1 cells in 6–well plates (5 × 10^5 cells per well) were treated with 3i (5, 10 and 20 µM) or with 0.1% (v/v) DMSO as a control for 48 h. The cells were stained with Annexin V-FITC and propidium iodide by the Annexin-FITC apoptosis staining/detection kit (Abcam) according to the instruction of the manufacturer. Briefly, cells were collected by scrapping, washed twice with cold PBS, and centrifuged (400 g, 5 min). Cells were resuspended in binding buffer (500 µL) and Annexin V–FITC (5 µL) and PI (5 µL) were added. Cells were incubated for 5 min at 20 °C in the dark. Finally, binding buffer (300 µL) was added to each tube, and the amount of apoptotic cells in samples were analyzed by flow cytometry. For each sample, 10,000 ungated events were acquired. Annexin V + PI − cells represent the early apoptotic populations. Annexin V + PI + cells represent either late apoptotic or secondary necrotic populations.

[9] = test system: KB-3-1 cells; experiment: Mitochondria depolarization analysis, JC-1 staining, flow cytometry; assay type: cell-based, human; conditions: 20 µM, KB-3-1, control 0.1% DMSO
Text: We next investigated whether 3i utilizes the mitochondrial ‘intrinsic’ pathway in the apoptotic death of KB-3-1 cells, since the pivotal role of mitochondria in triggering apoptosis is well established. We evaluated the mitochondrial transmembrane potential (∆Ψm) in KB-3-1 cells exposed to 3i using cytofluorometric analysis. Cells were stained with the specific mitochondrial cationic dye JC-1 (5,5′,6,6′-tetrachloro-1,1′,3,3′-tetraethyl benzimidazole carbocyanine iodide) that accumulates in the transmembrane space of polarized mitochondria and forms the so–called «J–aggregates», emitting red fluorescence. A decrease in ∆Ψm results in disappearance of J–aggregates and formation of JC-1 monomers, which emit in a green fluorescence.
Mitochondria involvement in apoptosis was measured by mitochondrial depolarization occurring early during onset of apoptosis. KB-3-1 cells were incubated with 3i (5, 10 and 20 µM) or 0.1% (v/v) DMSO as a control for 48 h. Then, cells were collected and incubated in complete media in the dark with mitochondrial potential sensor JC-1 (5 µg mL^−1) at 37 °C for 30 min, washed with cold PBS and resuspended in PBS (400 µL). Fluorescences of J–aggregate and J–monomer were recorded in the fluorescence channels 2 (FL2) and 1 (FL1), respectively, with flow cytometer «FC500». […]

Row | IC50 [1] [µM] | IC50 ([2]; Mus musculus, 48 h) [µM] | IC50 [3] [µM] | IC50 [4] [µM] | IC50 [5] [µM] | IC50 [2] [µM] | SMILES | IC50 [6] [µM] | Toxic effect on normal hFF3 cells [6] | Toxic effect on tumor cells [7] | Selectivity index, HuTu80 [1] | Selectivity index, B16 [2] | Selectivity index, A549 [3] | Selectivity index, KB-3-1 [4] | Selectivity index, HeLa [5] | Apoptotic cells ([8]; 5 µM) [%] | Apoptotic cells ([8]; 20 µM) [%] | Red fluorescence value (JC-1 J-aggregates) as compared to the control [9] | Selectivity index value ([7]; depending on the nature and origin of tumor cells)
1 | > 100 | > 100 | > 100 | > 100 | > 100 |  | CCCCCc1cc2cn(C3C=CC(O)C3)c(=O)nc2o1 (centres unmarked) [Compound 3b, 1-(4′-Hydroxy-2′-cyclopenten-1′-yl)-6-pentyl-3H-furano[2,3-d]-pyrimidine-2-one] | > 100 | no toxic effect | no toxic effect |  |  |  |  |  |  |  |  | 
2 | 8.5 ± 1.1 | 13.4 ± 3.2 | 15.6 ± 4.1 | 9.8 ± 0.7 | 11.1 ± 0.9 |  | CCCCCc1ccc(-c2cc3cn(C4C=CC(O)C4)c(=O)nc3[nH]2)cc1 (centres unmarked) [Compound 4i, 1-(4′-Hydroxy-2′-cyclopenten-1′-yl)-6-(4-pentylphenyl)-3H-pyrrolo[2,3-d]-pyrimidine-2-one] | 21.9 ± 4.8 |  |  | 2.6 | 1.6 | 1.4 | 2.2 | 1.9 |  |  |  | 

Second part, the compound before the results:

Row | SMILES | IC50 [1] [µM] | IC50 ([2]; Mus musculus, 48 h) [µM] | IC50 [3] [µM] | IC50 [4] [µM] | IC50 [5] [µM] | IC50 [2] [µM] | IC50 [6] [µM] | Toxic effect on normal hFF3 cells [6] | Toxic effect on tumor cells [7] | Selectivity index, HuTu80 [1] | Selectivity index, B16 [2] | Selectivity index, A549 [3] | Selectivity index, KB-3-1 [4] | Selectivity index, HeLa [5] | Apoptotic cells ([8]; 5 µM) [%] | Apoptotic cells ([8]; 20 µM) [%] | Red fluorescence value (JC-1 J-aggregates) as compared to the control [9] | Selectivity index value ([7]; depending on the nature and origin of tumor cells)
3 | CCCCCc1ccc(-c2cc3cn(C4C=CC(O)C4)c(=O)nc3o2)cc1 (centres unmarked) [Compound 3i, 1-(4′-Hydroxy-2′-cyclopenten-1′-yl)-6-(4-pentylphenyl)-3H-furano[2,3-d]-pyrimidine-2-one] | 5.1 ± 0.6 | 21 | 47.5 ± 5.8 | 8.2 ± 1.3 | 6.5 ± 0.9 | 21.3 ± 2.9 | > 100 | not toxic |  | >19.6 | >4.7 | >2.1 | >12.2 | >15.3 | 26 | 55.3 | decrease | 15–20
4 | CCCc1cc2cn(C3C=CC(O)C3)c(=O)nc2[nH]1 (centres unmarked) [Compound 4a, 1-(4′-Hydroxy-2′-cyclopenten-1′-yl)-6-propyl-3H-pyrrolo[2,3-d]-pyrimidine-2-one] | > 100 | > 100 | > 100 | > 100 | > 100 |  | > 100 | no toxic effect | no toxic effect |  |  |  |  |  |  |  |  | 
5 | CCCCCCCCCCc1cc2cn(C3CC(O)C(O)C3O)c(=O)nc2o1 (centres unmarked) [Compound 5, 1-(2′,3′,4′-Trihydroxycyclopent-1′-yl)-6-decyl-3H-furano[2,3-d]-pyrimidine-2-one] | > 100 | > 100 | > 100 | 50.3 ± 9.8 | 70.2 ± 8.9 |  | > 100 | not toxic |  |  |  |  | >2 | >1.4 |  |  |  | 
